From patent US20030162818A1, “Acylsulfonamide derivative” (AJINOMOTO CO. INC., priority 1997, published 2003)

Legend:
[1] = target: T1, acetyl-CoA carboxylase (ACC) (Rattus norvegicus, UniProt P11497); assay: Measurement of ACC inhibition activity (14C-bicarbonate incorporation, ACC purified from rat liver); assay type: biochemical; details: 5.6 × 10^−6 M compound; ACC purified from SD rat liver
T1 construct: subjected to decapitation and bloodletting under ether anesthesia to quickly take out the liver; from tissue; host or cells: rat liver (male SD rat, fasted then fed a high-sucrose feed)
Description: After 2 days of fasting, a male SD rat of 12 weeks of age was allowed to feed on a high sucrose feed (67% sucrose, 17.1% casein, 9.8% cellulose, 5% sodium chloride, 0.1% choline chloride and 1% vitamins) for 2 days and then subjected to decapitation and bloodletting under ether anesthesia to quickly take out the liver. The thus obtained liver was sliced in an ice-cooled buffer A (225 mM mannitol, 75 mM sucrose, 10 mM Tris/HCl (pH 7.5), 0.05 mM EDTA-2Na, 5 mM potassium citrate, 2.5 mM MnCl2, 10 mg/l aprotinin, 10 mg/l leupeptin and 10 mg/l antitrypsin) and then, after removal of moisture, adjusted to 5 ml/g by adding the buffer A and homogenized for 4 minutes using Polytron homogenizer. This was centrifuged for 10 minutes at 1,000 g and then the resulting supernatant was subjected to 10 minutes of high speed centrifugation at 17,000 g.
Ammonium sulfate was added to the thus obtained supernatant to a final concentration of 35%, and the mixture was stirred for 45 minutes and then subjected to 10 minutes of high speed centrifugation at 17,000 g. The thus obtained precipitate was mixed with 100 ml of a buffer B (100 mM Tris/HCl (pH 7.5), 0.5 M NaCl, 1 mM EDTA-2Na, 0.1 mM DTT, 10% glycerol, 10 mg/l aprotinin, 10 mg/l leupeptin and 10 mg/l antitrypsin) and subjected to 20 minutes of ultracentrifugation at 40,000, and the resulting supernatant was dialyzed overnight against 150 volumes of a buffer C (100 mM Tris/HCl (pH 7.5), 0.5 M NaCl, 1 mM EDTA-2Na, 0.1 mM DTT and 10% glycerol) and then filtered through a 5 μm filter. The filtrate was applied to a biotin affinity column, washed with the buffer B and then eluted with the buffer B supplemented with 5 mM biotin.
2. Measurement of ACC Inhibition Activity
Each of the compounds produced in the Examples was dissolved in DMSO, and the solution was put into a glass vial, mixed with 250 μl of an ACC-containing reagent 1 (40 mM Tris/HCl (pH 7.5), 40 mM MgCl2, 40 mM sodium citrate, 2 mM DTT and 100 μg/ml fatty acid-free BSA),incubated at 37° C. for 30 minutes in a thermostatic chamber, cooled with ice, mixed with 250 μl of a reagent 2 (40 mM Tris/HCl (pH 7.5), 2 mM DTT, 8 mM ATP and 0.5 mM acetyl-CoA) containing 74 kBq of NaH^14CO3, again incubated at 37° C. for 10 minutes in a thermostatic chamber and then mixed with 0.1 ml of 1 N HCl to terminate the reaction. After complete removal of moisture in the glass vial under a reduced pressure, an emulsified scintillator (Cleasol I) was added to the glass vial, and the ^14C radioactivity was measured using a liquid scintillation counter. […]
Inhibition activity ratio (%)=(1−radioactivity when a drug to be tested is added/radioactivity when the drug to be rested is not added)×100

HepG2 cells = assay: Measurement of intracellular fatty acid synthesis inhibition activity (FA biosynthesis from [14C]-glucose); assay type: cell-based; details: Homo sapiens, 3.0 × 10^−5 M compound, 3 hours culture with [14C]-glucose
Description: Measurement of Intracellular Fatty Acid Synthesis Inhibition Activity (FA Biosynthesis Inhibition Activity)
Each of the compounds produced in the Examples was dissolved in DMSO and added to an experimental culture medium (DMEM; 0.05 μg/ml insulin, 0.1 mg/ml glucose and 18.5 kBq/ml [^14C]-glucose). The HepG2 cells were adjusted to a density of 0.75×10^6 cells/ml, inoculated into a 12 well plate in an amount of 1 ml/well and cultured overnight at 37° C. in an atmosphere of 5% CO2 (culture medium: DMEM, […] and 10% FBS), and the resulting cells were washed twice with PBS(−) buffer, mixed with the experimental culture medium in an amount of 0.5 ml/well and then cultured at 37° C. for 3 hours in an atmosphere of 5% CO2. After the culturing, the cells were washed twice with ice-cooled PBS(−) buffer and peeled off, and lipids were extracted from the resulting cells with a lipid extraction solution (chloroform:methanol=2:1). The extract was mixed with 2.5 ml of ethanol and 0.1 ml of 33% potassium hydroxide and incubated at 70° C. for 1 hour. Lipids were again extracted from the reaction mixture, and the extract was applied to a silica gel thin layer plate. This was developed with a developing solution (hexane:diethyl ether:acetic acid=80:20:1) and then the fatty acid iodine-coloring part was collected to measure its radioactivity using a liquid scintillation counter. The inhibition activity % (3.0×10^−5 M) of each compound was calculated.

inhibition at 5.6 µM [1]	melting point	SMILES	inhibition at 30 µM (HepG2 cells)
88.4%	145 to 148 °C	CCCCCCCCCC(=O)NS(=O)(=O)c1ccccc1NC(=O)c1cccc(OCc2ccc([N+](=O)[O-])cc2)c1 [Example 22, N-[2-[3-(4-Nitrobenzyloxy)benzamido]benzenesulfonyl]decananide]	95.2%
81.6%	148 to 149 °C	CCCCCCCCCC(=O)NS(=O)(=O)c1ccccc1NC(=O)c1cccc(OCc2ccc(OC)cc2)c1 [Example 25, N-[2-[3-(4-methoxybenzyloxy)benzamido]benzenesulfonyl]decanamide]	92%
89.4%	124 to 127 °C	CCCCCCCCCC(=O)NS(=O)(=O)c1ccccc1NC(=O)c1cccc(OCC2CCCCC2)c1 [Example 28, N-[2-(3-Cyclohexylmethoxybenzamido)benzenesulfonyl]decanamide]	84.6%
53.2%	163 to 164 °C	CCCCCC(=O)NS(=O)(=O)c1ccccc1NC(=O)c1cccc(OCc2ccc(C(C)(C)C)cc2)c1 [Example 30, N-[2-[3-(4-t-Butylbenzyloxy)benzamido]benzenesulfonyl]hexanamide]	87.1%
67.6%	132 to 133 °C	CCCCCCCCCC(=O)NS(=O)(=O)c1ccccc1NC(=O)c1cccc(OCc2ccc(C(C)(C)C)cc2)c1 [Example 31, N-[2-[3-(4-t-Butylbenzyloxy)benzamido]benzenesulfonyl]decanamide]	66.4%
52.3%	142 to 143 °C	CCCCCC(=O)NS(=O)(=O)c1ccccc1NC(=O)c1cccc(OCc2ccc(C(F)(F)F)cc2)c1 [Example 33, N-[2-[3-(4-Trifluoromethylbenzyloxy)benzamido]benzenesulfonyl]hexanamide]	97.5%
81.3%	164 °C	CCCCCCCCCC(=O)NS(=O)(=O)c1ccccc1NC(=O)c1cccc(OCc2ccc(C(F)(F)F)cc2)c1 [Example 34, N-[2-[3-(4-Trifluoromethylbenzyloxy)benzamido]benzenesulfonyl]decanamide]	87.7%
83.6%	172 to 174 °C	CCCCCCCCCC(=O)NS(=O)(=O)c1ccccc1NC(=O)c1cccc(OCCCCCCC)c1 [Example 37, N-[2-(3-Heptyloxybenzamido]benzenesulfonyl]decanamide]	64.3%
76%	155 to 156 °C	CCCCCCCCCC(=O)NS(=O)(=O)c1ccccc1NC(=O)c1ccc(C#Cc2ccccc2)cc1 [Example 40, N-[2-(4-Phenylethynylbenzamido)benzenesulfonyl]decanamide]	57.4%
54.3%	208 to 209 °C	C/C=C/C=C/C(=O)NS(=O)(=O)c1ccccc1NC(=O)c1ccc(C#Cc2ccccc2)cc1 [Example 43, trans-N-[2-(4-Phenylethynylbenzamido)benzenesulfonyl]-2,4-hexadienamide]	92.3%
